The values that follow come from US8580829B2 (Boehringer Ingelheim International GmbH, priority 2010, dated 2013).

Each structure is given as a SMILES string. Like-named read-outs stand apart in the source and are kept apart here.

In assay [1] the target is T1, recombinant human FLAP protein (Homo sapiens, UniProt P20292).
T1 construct: made in house; host or cells: Sf9 insect cells (100,000 x g membrane fraction)
T1 sequence (P20292 1-161): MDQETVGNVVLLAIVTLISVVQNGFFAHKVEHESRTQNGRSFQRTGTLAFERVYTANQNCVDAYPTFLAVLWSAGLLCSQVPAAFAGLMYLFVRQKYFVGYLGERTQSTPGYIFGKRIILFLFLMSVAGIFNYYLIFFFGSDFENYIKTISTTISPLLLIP
Description: FLAP binding assay (Scintillation Proximity Assay, displacement of [125I]L-691,831). The conditions noted are these: recombinant human FLAP membranes, [125I]L-691,831 probe; read-out: FLAP SPA IC50. The method in brief: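 Membranes came from Sf9 insect cells expressing recombinant human FLAP, collected as the 100,000×g pellet in Tris pH 7.5/MgCl2/EDTA buffer. 5 μg membrane protein was coupled to WGA SPA beads for 1 h.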

For assay [2], the system named is synthesis of LTB4 in human whole blood. As to the kind of experiment: human whole blood LTB4 production inhibition assay. The format is cell-based. The method in brief:
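Whole-blood cellular format, heparinized human donors: 15 min compound pretreatment, then 30 min calcimycin stimulation (20 μM final), both at 37° C. Low-speed centrifugation yields plasma, in which LTB4 is read by homogeneous time-resolved fluorescence immunoassay.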

The mark [3] stands for this setting: Homo sapiens, heparinized human whole blood, calcimycin 20 μM, read-out: hWB LTB4 IC50.

Take `Cn1cc(-c2nc(C3(c4ccc(-c5ccc(N)c(C#N)c5)cc4)CCC3)no2)cn1` [Example 260]: the IC50 in assay [1] was 76 nM; in assay [2] (setting [3]) it was 2000 nM.
Regarding `CN(C)C(=O)Cn1cnc(-c2nc(C3(c4ccc(-c5cnc(N)nc5)cc4)CCC3)no2)c1` [Example 251, 2-[4-(3-{1-[4-(2-Amino-pyrimidin-5-yl)-phenyl]-cyclobutyl}-[1,2,4]oxadiazol-5-yl)-imidazol-1-yl]-N,N-dimethyl-acetamide], the 50% inhibitory concentration (IC50) in assay [1] was 36 nM; in assay [2] (setting [3]), 2200 nM.
With `CN1CCC(N(C)c2nc(C3(c4ccc(-c5cnc(N)nc5)cc4)CCC3)no2)CC1` [Example 293, 5-[4-(1-{5-[Methyl-(1-methyl-piperidin-4-yl)-amino]-[1,2,4]oxadiazol-3-yl}-cyclobutyl)-phenyl]-pyrimidin-2-ylamine], the IC50 turned out to be 150 nM in assay [1] and 750 nM in assay [2] (Homo sapiens, read-out: hWB LTB4 IC50 (nM)).
For `Cc1ncc(-c2nc(C3(c4ccc(-c5cnc(N)nc5)cc4)CCC3)no2)[nH]1` [Example 10, 5-(4-{1-[5-(2-Methyl-3H-imidazol-4-yl)-1,2,4-oxadiazol-3-yl]-cyclobutyl}-phenyl)-pyrimidin-2-ylamine], the half-inhibitory concentration (IC50) in assay [1] worked out at 2.1 nM; in assay [2] (setting [3]) it was 290 nM.
Turning to `Nc1ncc(-c2ccc(C3(c4noc(-c5cscn5)n4)CCC3)cc2)cn1` [Example 71], the IC50 was determined as 2.4 nM in assay [1] and 200 nM in assay [2] (setting [3]).
Regarding `Nc1ncc(-c2ccc(C3(c4noc(-c5cnc(N6CCNCC6)cn5)n4)CCC3)cc2)cn1` [Example 214, 5-(4-{1-[5-(3,4,5,6-Tetrahydro-2H-[1,2′]bipyrazinyl-5′-yl)-[1,2,4]oxadiazol-3-yl]-cyclobutyl}-phenyl)-pyrimidin-2-ylamine], the IC50 in assay [1] amounted to 4 nM; in assay [2] (heparinized human whole blood, calcimycin 20 μM, read-out: hWB LTB4 IC50), 150 nM.
As for `Nc1ncc(-c2ccc(C3(c4noc(-c5c[nH]nn5)n4)CCC3)cc2)cn1` [Example 40, 5-(4-{1-[5-(1H-1,2,3-Triazol-4-yl)-1,2,4-oxadiazol-3-yl]-cyclobutyl}-phenyl)-pyrimidin-2-ylamine], the values for the IC50 in assay [1] and in assay [2] (setting [3]) were 4.7 nM and 2100 nM, respectively.
The corresponding values for `Nc1ncc(-c2ccc(C3(c4noc(Cn5ccnc5)n4)CCC3)cc2)cn1` [Example 277, 5-{4-[1-(5-Imidazol-1-ylmethyl-[1,2,4]oxadiazol-3-yl)-cyclobutyl]-phenyl}-pyrimidin-2-ylamine] are 260 nM and 2800 nM.
The like results for `Cc1n[nH]cc1-c1nc(C2(c3ccc(-c4cnc(N)nc4)cc3)CCC2)no1` [Example 6, 5-(4-{1-[5-(3-Methyl-1H-pyrazol-4-yl)-1,2,4-oxadiazol-3-yl]-cyclobutyl}-phenyl)-pyrimidin-2-ylamine] were, in that order, 1.1 nM and 150 nM.
Turning to `Nc1ncc(-c2ccc(C3(c4noc(-c5ccc(N6CCC[C@@H]6CO)nc5)n4)CCC3)cc2)cn1` [Example 102, {(R)-1-[5-(3-{1-[4-(2-Amino-pyrimidin-5-yl)-phenyl]-cyclobutyl}-1,2,4-oxadiazol-5-yl)-pyridin-2-yl]-pyrrolidin-2-yl}-methanol], the results for the IC50 in assay [1] and in assay [2] (setting [3]) were 2.5 nM and 180 nM, respectively.
The like results for `Nc1ncc(-c2ccc(C3(c4noc(-c5ccnnc5)n4)CCC3)cc2)cn1` [Example 160, 5-{4-[1-(5-Pyridazin-4-yl-1,2,4-oxadiazol-3-yl)-cyclobutyl]-phenyl}-pyrimidin-2-ylamine] were, in that order, 6.2 nM and 240 nM.
With `COCCNc1ccc(-c2nc(C3(c4ccc(-c5cnc(N)nc5)cc4)CCC3)no2)nn1` [Example 111, [6-(3-{1-[4-(2-amino-pyrimidin-5-yl)-phenyl]-cyclobutyl}-1,2,4-oxadiazol-5-yl)-pyridazin-3-yl]-(2-methoxy-ethyl)-amine], the results for the IC50 in assay [1] and in assay [2] (setting [3]) were 1.2 nM and 32 nM, respectively.
On to `CN(C)C(=O)Cn1cc(-c2nc(C3(c4ccc(-c5cnc6[nH]ccc6n5)cc4)CCC3)no2)cn1` [Example 275, N,N-Dimethyl-2-[4-(3-{1-[4-(5H-pyrrolo[2,3-b]pyrazin-2-yl)-phenyl]-cyclobutyl}-[1,2,4]oxadiazol-5-yl)-pyrazol-1-yl]-acetamide], for which the IC50 turned out to be 2.8 nM in assay [1] and 140 nM in assay [2] (setting [3]).
In the case of `CC(O)CNc1cnc(-c2nc(C3(c4ccc(-c5cnc(N)nc5)cc4)CCC3)no2)cn1` (centres unmarked) [Example 200, 1-[5-(3-{1-[4-(2-Amino-pyrimidin-5-yl)-phenyl]-cyclobutyl}-1,2,4-oxadiazol-5-yl)-pyrazin-2-ylamino]-propan-2-ol], the IC50 came to 1.5 nM in assay [1] and 67 nM in assay [2] (setting [3]).
The like results for `Cn1cc(-c2nc(C3(c4ccc(-c5cnc(N)c(CO)c5)cc4)CCC3)no2)cn1` [Example 274, [2-Amino-5-(4-{1-[5-(1-methyl-1H-pyrazol-4-yl)-[1,2,4]oxadiazol-3-yl]-cyclobutyl}-phenyl)-pyridin-3-yl]-methanol] were, in that order, 8.8 nM and 220 nM.
`Cn1cc(-c2nc(C3(c4ccc(-c5ccc(N)nn5)cc4)CCC3)no2)cn1` [Example 258, 6-(4-{1-[5-(1-Methyl-1H-pyrazol-4-yl)-[1,2,4]oxadiazol-3-yl]-cyclobutyl}-phenyl)-pyridazin-3-ylamine]: the figures for the IC50 in assay [1] and in assay [2] (setting [3]) were 73 nM and 610 nM, respectively.
The like results for `CS(=O)(=O)Nc1nc(C2(c3ccc(-c4cnc(N)nc4)cc3)CCC2)no1` [Example 27, N-(3-{1-[4-(2-Amino-pyrimidin-5-yl)-phenyl]-cyclobutyl}-1,2,4-oxadiazol-5-yl)-methanesulfonamide] were, in that order, 340 nM and above 5000 nM.
On to `Nc1ncc(-c2ccc(C3(c4noc(-c5cnn(CC(=O)N6CCCCC6)c5)n4)CCC3)cc2)cn1` [Example 127, 2-[4-(3-{1-[4-(2-Amino-pyrimidin-5-yl)-phenyl]-cyclobutyl}-1,2,4-oxadiazol-5-yl)-pyrazol-1-yl]-1-piperidin-1-yl-ethanone], for which the IC50 turned out to be 3.2 nM in assay [1] and 120 nM in assay [2] (setting [3]).
Take `Cc1cc(-c2ccc(C3(c4noc(-c5cnn(C)c5)n4)CCC3)cc2)cnc1N` [Example 221, 3-Methyl-5-(4-{1-[5-(1-methyl-1H-pyrazol-4-yl)-[1,2,4]oxadiazol-3-yl]-cyclobutyl}-phenyl)-pyridin-2-ylamine]: the values for the IC50 in assay [1] and in assay [2] (setting [3]) were 1.9 nM and 47 nM, respectively.
The corresponding values for `Nc1ncc(-c2ccc(C3(c4noc(N5CCCC5)n4)CCC3)cc2)cn1` [Example 12, 5-{4-[1-(5-Pyrrolidin-1-yl-1,2,4-oxadiazol-3-yl)-cyclobutyl]-phenyl}-pyrimidin-2-ylamine] are 8.3 nM and 470 nM.
As for `Cn1nccc1-c1nc(C2(c3ccc(-c4cnc(N)nc4)cc3)CCC2)no1` [Example 57, 5-(4-{1-[5-(2-methyl-2H-pyrazol-3-yl)-1,2,4-oxadiazol-3-yl]-cyclobutyl}-phenyl)-pyrimidin-2-ylamine], the results for the IC50 in assay [1] and in assay [2] (setting [3]) were 1.8 nM and 45 nM, respectively.
The like results for `Nc1ncc(-c2ccc(C3(c4noc(-c5ccc(Cl)c(Cl)c5)n4)CCC3)cc2)cn1` [Example 55, 5-(4-{1-[5-(3,4-Dichloro-phenyl)-1,2,4-oxadiazol-3-yl]-cyclobutyl}-phenyl)-pyrimidin-2-ylamine] were, in that order, 13 nM and 1100 nM.
The like results for `Cc1cccc(-c2nc(C3(c4ccc(-c5cnc(N)nc5)cc4)CCC3)no2)c1` [Example 34, 5-{4-[1-(5-m-tolyl-1,2,4-oxadiazol-3-yl)-cyclobutyl]-phenyl}-pyrimidin-2-ylamine] were, in that order, 7.7 nM and 780 nM.
Take `Cn1cc(-c2nc(C3(c4ccc(-c5cnc(N)nc5)cc4)CC(C)(C)C3)no2)cn1` [Example 123, 5-(4-{3,3-Dimethyl-1-[5-(1-methyl-1H-pyrazol-4-yl)-1,2,4-oxadiazol-3-yl]-cyclobutyl}-phenyl)-pyrimidin-2-ylamine]: the figures for the IC50 in assay [1] and in assay [2] (setting [3]) were 35 nM and 1500 nM, respectively.
On to `CC(C)(O)CNc1ccc(-c2nc(C3(c4ccc(-c5cnc(N)nc5)cc4)CCC3)no2)nn1` [Example 114, 1-[6-(3-{1-[4-(2-Amino-pyrimidin-5-yl)-phenyl]-cyclobutyl}-1,2,4-oxadiazol-5-yl)-pyridazin-3-ylamino]-2-methyl-propan-2-ol], for which the IC50 in assay [1] was 2.6 nM; in assay [2] (setting [3]), 290 nM.
The corresponding values for `CN(C)C(=O)n1cc(-c2nc(C3(c4ccc(-c5cnc(N)nc5)cc4)CCC3)no2)cn1` [Example 136, 4-(3-{1-[4-(2-Amino-pyrimidin-5-yl)-phenyl]-cyclobutyl}-1,2,4-oxadiazol-5-yl)-pyrazole-1-carboxylic acid dimethylamide] are 1.5 nM and 66 nM.
The corresponding values for `Nc1ncc(-c2ccc(C3(c4noc(-c5cnc(N)nc5)n4)CCC3)cc2)cn1` [Example 18, 5-(4-{1-[5-(2-Amino-pyrimidine-5-yl)-1,2,4-oxadiazole-3-yl]-cyclobutyl}-phenyl)-pyrimidin-2-ylamine] are 2.9 nM and 300 nM.
The like results for `Cc1cc(-c2nc(C3(c4ccc(-c5cnc(N)nc5)cc4)CCC3)no2)ccc1O` [Example 99, 4-(3-{1-[4-(2-Amino-pyrimidin-5-yl)-phenyl]-cyclobutyl}-1,2,4-oxadiazol-5-yl)-2-methyl-phenol] were, in that order, 2 nM and 150 nM.

Usually IC50 stands for the concentration that inhibits the measured activity by half.
